A value given as a limit tells only on which side of the number the result lay.

Common to all, as to format: functional, cell-based
The nature of test [1]: Cytotoxicity against human KBVIN cells by SRB assay.
A further test has as its system DU-145. Put plainly: Cytotoxicity against human DU145 cells by SRB assay.
The test system of the next test is KB. Description: Cytotoxicity against human KB cells by SRB assay. In general terms: Sulforhodamine B stains cellular protein and so reports cell mass.
The test system of a further test is A549. Put plainly: Cytotoxicity against human A549 cells by SRB assay.

For the compound `CC[C@@]1(O)C(=O)OCc2c1cc1n(c2=O)Cc2c-1nc1ccccc1c2C(=O)c1ccc(OC)cc1`, the IC50 in test [1] stood at 3.14 µM; in the test with DU-145, 1.61 µM; with KB it was 4.78 µM; in the test on A549, 0.911 µM.
On the same counts, the results for `CC[C@@]1(O)C(=O)OCc2c1cc1n(c2=O)Cc2c-1nc1ccccc1c2C(=O)c1ccc2c(c1)OCO2` are 1.77 µM, 2.6 µM, 11.8 µM and 1.13 µM.
For `CC[C@@]1(O)C(=O)OCc2c1cc1n(c2=O)Cc2c-1nc1ccccc1c2C(=O)c1ccc(C)c(O)c1`, in that order: 1.14 µM, 1.54 µM, 1.73 µM and 1.02 µM.
For `CC[C@@]1(O)C(=O)OCc2c1cc1n(c2=O)Cc2c-1nc1ccccc1c2C(=O)c1cc(OC)c(OC)c(OC)c1`, in that order: 1.17 µM, 2.11 µM, 3.14 µM and 1 µM.
In the case of `CCc1c2c(nc3ccc(OC(=O)N4CCC(N5CCCCC5)CC4)cc13)-c1cc3c(c(=O)n1C2)COC(=O)[C@]3(O)CC` [IRINOTECAN], the IC50 in test [1] was over 20 µM; in the test with DU-145, 9.3 µM.
As to `CC[C@@]1(O)C(=O)OCc2c1cc1n(c2=O)Cc2c-1nc1ccccc1c2C(C)=O`, the IC50 in test [1] was 0.131 µM; in the test on DU-145 it was 0.0402 µM; in the test with KB, 0.0233 µM; in the test on A549, 0.0154 µM.
For `CC[C@@]1(O)C(=O)OCc2c1cc1n(c2=O)Cc2c-1nc1ccccc1c2C(=O)c1ccccc1`, in that order: 11.9 µM, 11 µM, 13.3 µM and 11 µM.
For `CC[C@@]1(O)C(=O)OCc2c1cc1n(c2=O)Cc2c-1nc1ccccc1c2C(=O)c1ccoc1`, in that order: 1.8 µM, 2.01 µM, 2.73 µM and 2.02 µM.
For `CC[C@@]1(O)C(=O)OCc2c1cc1n(c2=O)Cc2c-1nc1ccccc1c2C(=O)c1ccc(Cl)cc1`, in that order: 1.12 µM, 1.68 µM, 3.07 µM and 0.949 µM.
Take `CC[C@@]1(O)C(=O)OCc2c1cc1n(c2=O)Cc2c-1nc1ccccc1c2C(=O)c1cc(OC)ccc1OC`: the IC50 turned out to be 2.25 µM in test [1], 2.06 µM in the test with DU-145, 2.92 µM in the test with KB and 1.01 µM in the test with A549.
`CC[C@@]1(O)C(=O)OCc2c1cc1n(c2=O)Cc2cc3ccccc3nc2-1` [CAMPTOTHECIN] gave an IC50 with DU-145 of 0.0287 µM.
For the compound `CC[C@@]1(O)C(=O)OCc2c1cc1n(c2=O)Cc2c-1nc1ccccc1c2C(=O)c1ccc(C)c(C)c1`, the IC50 came to 4.62 µM in test [1], 1.7 µM in the test with DU-145, 2.49 µM in the test on KB and 1 µM in the test on A549.
For `CCC(=O)c1c2c(nc3ccccc13)-c1cc3c(c(=O)n1C2)COC(=O)[C@]3(O)CC`, in that order: 0.0287 µM, 0.0898 µM, 0.0592 µM and 0.0317 µM.
On the same counts, the results for `CC[C@@]1(O)C(=O)OCc2c1cc1n(c2=O)Cc2c-1nc1ccccc1c2C(=O)c1ccc(O)cc1` are 1.79 µM, 2.99 µM, 12.5 µM and 2.51 µM.

What is called IC50 is the midpoint of a concentration-inhibition curve. Lower therefore signals inhibition by little substance.

The record behind these values is ChEMBL document CHEMBL2203178, “Design and one-pot synthesis of new 7-acyl camptothecin derivatives as potent cytotoxic agents” (Bioorg Med Chem Lett, 2012).
